Laboratory results reported in ChEMBL document CHEMBL1125661, “2-Alkoxyadenosines: potent and selective agonists at the coronary artery A2 adenosine receptor” (J Med Chem, 1991).

Key:
Adenosine A2 receptor [1] = biological target: T1, Adenosine A2 receptor (Homo sapiens, UniProt P29275+P29274)
Description: Coronary arteries vasodilation at the Adenosine A2 receptor in langendorff guinea pig heart preparation

Adenosine receptor A1 [2] = biological target: T2, Adenosine receptor A1 (Cavia porcellus, UniProt P47745); experiment: Prolongation of the stimulus-QRS interval by 50% of the maximum response at the Adenosine A1 receptor in langendorff guinea pig heart preparation; type: functional
T2 sequence (P47745 whole entry): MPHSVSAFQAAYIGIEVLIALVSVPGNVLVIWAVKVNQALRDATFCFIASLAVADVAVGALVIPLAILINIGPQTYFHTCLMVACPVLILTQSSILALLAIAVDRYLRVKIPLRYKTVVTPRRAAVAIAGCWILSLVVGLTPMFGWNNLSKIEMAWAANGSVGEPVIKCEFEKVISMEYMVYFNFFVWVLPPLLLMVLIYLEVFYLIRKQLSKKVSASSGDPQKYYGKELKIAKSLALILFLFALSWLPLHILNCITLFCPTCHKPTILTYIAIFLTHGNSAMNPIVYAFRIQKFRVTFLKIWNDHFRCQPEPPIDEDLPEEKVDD

Adenosine A2 receptor [3] = biological target: T1, Adenosine A2 receptor; remark: listed apart in the source
Description: Coronary arteries vasodilation at the adenosine A2 receptor in langendorff guinea pig heart preparation

Adenosine receptor A1 [4] = biological target: T2, Adenosine receptor A1
Description: Prolongation of the stimulus-QRS interval by 50% of the maximum response at the adenosine A1 receptor in langendorff guinea pig heart preparation

SMILES | -Log EC50 (Adenosine A2 receptor [1]) | EC50 (Adenosine receptor A1 [2]) | -Log EC50 (Adenosine A2 receptor [3]) | EC50 (Adenosine receptor A1 [4])
Nc1nc(OC2CCCC2)nc2c1ncn2[C@H]1O[C@@H](CO)[C@H](O)[C@@H]1O | 7.04 | 79.4 µM | – | –
CC1(C)C2CCC(C(=O)CCOc3nc(N)c4ncn(C5O[C@@H](CO)[C@H](O)[C@@H]5O)c4n3)C1C2 (stereo partly specified) | 8.24 | 4.47 µM | – | –
Nc1nc(Nc2ccccc2)nc2c1ncn2[C@@H]1O[C@H](CO)[C@@H](O)[C@H]1O | – | – | 7.74 | 12.6 µM
Nc1nc(OCCC2CCCC2)nc2c1ncn2C1O[C@@H](CO)[C@H](O)[C@@H]1O (stereo partly specified) | – | – | 8.41 | 14.1 µM
CCC(CC)CCOc1nc(N)c2ncn(C3O[C@@H](CO)[C@H](O)[C@@H]3O)c2n1 (stereo partly specified) | 7.8 | 15.8 µM | – | –
CC(C)Oc1nc(N)c2ncn(C3O[C@@H](CO)[C@H](O)[C@@H]3O)c2n1 (stereo partly specified) | 5.86 | 224 µM | – | –
CC(C)CCOc1nc(N)c2ncn(C3O[C@@H](CO)[C@H](O)[C@@H]3O)c2n1 (stereo partly specified) | 7.61 | 66.1 µM | – | –
CC(C)N(c1ccccc1)c1ncnc2c1ncn2C1O[C@H](CO)[C@@H](O)[C@H]1O (stereo partly specified) | 7.88 | 0.0339 µM | – | –
CCNC(=O)[C@H]1O[C@@H](n2cnc3c(N)nc(NCCc4ccc(CCC(=O)O)cc4)nc32)[C@H](O)[C@@H]1O [CGS-21680] | – | 24.5 µM | – | –
Nc1nc(OC2CCCCC2)nc2c1ncn2C1O[C@@H](CO)[C@H](O)[C@@H]1O (stereo partly specified) | 6.18 | 100 µM | – | –
CC(C)COc1nc(N)c2ncn(C3O[C@@H](CO)[C@H](O)[C@@H]3O)c2n1 (stereo partly specified) | 7.15 | 107 µM | – | –
Nc1nc(=O)[nH]c2c1ncn2[C@@H]1O[C@H](CO)[C@@H](O)[C@H]1O [ISOGUANOSINE] | 7.1 | 1.15 µM | – | –
COc1cc(OC)cc(C(CNc2ncnc3c2ncn3[C@@H]2O[C@H](CO)[C@@H](O)[C@H]2O)c2ccccc2C)c1 (stereo partly specified) | – | – | 9.35 | 5.62 µM
CCCOc1nc(N)c2ncn(C3O[C@@H](CO)[C@H](O)[C@@H]3O)c2n1 (stereo partly specified) | 7.28 | 148 µM | – | –
O=C(Nc1ncnc2c1ncn2[C@@H]1O[C@H](CO)[C@@H](O)[C@H]1O)[C@H]1C[C@H]2CC[C@@H]1C2 | 7.08 | 0.00537 µM | – | –
Nc1nc(Cl)nc2c1ncn2[C@@H]1O[C@H](CO)[C@@H](O)[C@H]1O | – | – | 7.6 | 0.191 µM

SMILES | -Log EC50 (Adenosine A2 receptor [1]) | EC50 (Adenosine receptor A1 [2]) | -Log EC50 (Adenosine A2 receptor [3]) | EC50 (Adenosine receptor A1 [4])
Nc1nc(OCC2CCCCC2)nc2c1ncn2C1O[C@@H](CO)[C@H](O)[C@@H]1O (stereo partly specified) | – | – | 6.75 | 50.1 µM
CCCCCOc1nc(N)c2ncn(C3O[C@@H](CO)[C@H](O)[C@@H]3O)c2n1 (stereo partly specified) | 7.94 | 45.7 µM | – | –
CC(C)CCCOc1nc(N)c2ncn(C3O[C@@H](CO)[C@H](O)[C@@H]3O)c2n1 (stereo partly specified) | 8.45 | 22.9 µM | – | –
CC#CCCOc1nc(N)c2ncn(C3O[C@@H](CO)[C@H](O)[C@@H]3O)c2n1 (stereo partly specified) | 7.56 | 63.1 µM | – | –
Nc1nc(OCCCCC2CCCCC2)nc2c1ncn2C1O[C@@H](CO)[C@H](O)[C@@H]1O (stereo partly specified) | 8.71 | 2.63 µM | – | –
CCC(C)Oc1nc(N)c2ncn(C3O[C@@H](CO)[C@H](O)[C@@H]3O)c2n1 (stereo partly specified) | 5.45 | 891 µM | – | –
Nc1nc(OCCC2CCCCC2)nc2c1ncn2C1O[C@@H](CO)[C@H](O)[C@@H]1O (stereo partly specified) | – | – | 8.99 | 8.71 µM
Nc1nc(OCCCC2CCCCC2)nc2c1ncn2C1O[C@@H](CO)[C@H](O)[C@@H]1O (stereo partly specified) | – | – | 8.67 | 3.72 µM
Nc1nc(OCCC(=O)[C@H]2CC3CCC2C3)nc2c1ncn2C1O[C@@H](CO)[C@H](O)[C@@H]1O (stereo partly specified) | – | – | 8.35 | 8.71 µM
CCC(CC)COc1nc(N)c2ncn(C3O[C@@H](CO)[C@H](O)[C@@H]3O)c2n1 (stereo partly specified) | 6.54 | 35.5 µM | – | –
CCCCCCOc1nc(N)c2ncn(C3O[C@@H](CO)[C@H](O)[C@@H]3O)c2n1 (stereo partly specified) | 8.42 | 13.8 µM | – | –
COc1nc(N)c2ncn([C@H]3O[C@@H](CO)[C@H](O)[C@@H]3O)c2n1 | – | – | 6.16 | 9.33 µM
Nc1nc(OCCO)nc2c1ncn2C1O[C@@H](CO)[C@H](O)[C@@H]1O (stereo partly specified) | 7.18 | 2.19 µM | – | –
CCCCOc1nc(N)c2ncn(C3O[C@@H](CO)[C@H](O)[C@@H]3O)c2n1 (stereo partly specified) | 7.28 | 37.2 µM | – | –
CCOc1nc(N)c2ncn(C3O[C@@H](CO)[C@H](O)[C@@H]3O)c2n1 (stereo partly specified) | 6.44 | 79.4 µM | – | –
